Data set [1] addresses Multidrug resistance protein 1a (Rattus norvegicus) (UniProt Q6PSM0). The data set can be described thus: TP_TRANSPORTER: increase in Vinblastine intracellular accumulation (Vinblastine: 0.0125 uM, Rifamycin SV: 200 uM) in RHC1 cells. The data set is classed as functional, cell-based.
Data set [2] has the same target. The data set can be described thus: TP_TRANSPORTER: increase in Vinblastine intracellular accumulation (Vinblastine: 0.0125 uM, Rifamycin B: 200 uM) in RHC1 cells. The format is functional, cell-based.
Data set [3] concerns the target ATP-dependent translocase ABCB1 (Homo sapiens, UniProt P08183). The data set can be described thus: TP_TRANSPORTER: inhibition of Azidopine photoaffinity labelling (Rifampicin: 200 uM) in membranes from K562 R7 cells. The format is functional, cell membranes, Membrane. The conditions noted are these: k562/r7, 200 µM.
Data set [4] deals with Multidrug resistance protein 1a (Rattus norvegicus) (UniProt Q6PSM0). The data set can be described thus: TP_TRANSPORTER: increase in Vinblastine intracellular accumulation (Vinblastine: 0.0125 uM, Rifampicin: 200 uM) in RHC1 cells. The format is functional, cell-based.

Results on three compounds are retold here after ChEMBL document CHEMBL2074349, “Rifampicin enhances anti-cancer drug accumulation and activity in multidrug-resistant cells” (Biochem Pharmacol, 1995).

Multidrug resistance protein 1a (Rattus norvegicus), sequence (Q6PSM0 as listed by the source): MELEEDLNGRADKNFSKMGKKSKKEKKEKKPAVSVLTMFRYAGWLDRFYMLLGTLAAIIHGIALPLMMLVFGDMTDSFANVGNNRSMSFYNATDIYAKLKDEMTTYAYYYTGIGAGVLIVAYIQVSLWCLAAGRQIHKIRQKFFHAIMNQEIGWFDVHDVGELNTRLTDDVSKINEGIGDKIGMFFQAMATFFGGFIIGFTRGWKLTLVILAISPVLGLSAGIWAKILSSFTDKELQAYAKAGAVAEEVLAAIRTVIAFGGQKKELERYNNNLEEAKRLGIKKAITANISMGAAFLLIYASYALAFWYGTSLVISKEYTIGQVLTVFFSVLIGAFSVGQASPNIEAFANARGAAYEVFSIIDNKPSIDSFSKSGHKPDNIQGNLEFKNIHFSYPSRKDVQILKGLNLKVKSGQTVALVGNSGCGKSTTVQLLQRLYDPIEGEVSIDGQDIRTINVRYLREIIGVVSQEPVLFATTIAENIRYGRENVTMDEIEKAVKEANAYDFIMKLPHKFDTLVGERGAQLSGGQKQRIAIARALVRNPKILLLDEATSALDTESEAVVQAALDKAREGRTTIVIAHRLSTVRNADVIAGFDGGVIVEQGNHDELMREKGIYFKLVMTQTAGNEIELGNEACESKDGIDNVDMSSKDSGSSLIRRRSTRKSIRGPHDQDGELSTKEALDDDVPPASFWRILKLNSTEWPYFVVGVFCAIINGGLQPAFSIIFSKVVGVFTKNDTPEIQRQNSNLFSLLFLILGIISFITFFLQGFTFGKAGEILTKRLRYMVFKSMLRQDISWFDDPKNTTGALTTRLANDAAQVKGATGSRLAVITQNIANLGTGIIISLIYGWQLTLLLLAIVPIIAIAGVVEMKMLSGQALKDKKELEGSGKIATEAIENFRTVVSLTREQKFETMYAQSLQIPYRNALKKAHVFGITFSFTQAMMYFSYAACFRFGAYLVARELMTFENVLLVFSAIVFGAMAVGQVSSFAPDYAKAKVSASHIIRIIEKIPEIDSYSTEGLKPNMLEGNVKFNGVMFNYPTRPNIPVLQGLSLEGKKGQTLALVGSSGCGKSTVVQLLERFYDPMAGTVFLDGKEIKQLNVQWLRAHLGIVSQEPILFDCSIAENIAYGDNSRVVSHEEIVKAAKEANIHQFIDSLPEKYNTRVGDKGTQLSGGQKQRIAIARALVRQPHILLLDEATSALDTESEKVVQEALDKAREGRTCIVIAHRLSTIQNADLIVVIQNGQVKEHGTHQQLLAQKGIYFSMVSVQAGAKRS
ATP-dependent translocase ABCB1, sequence (P08183 whole entry): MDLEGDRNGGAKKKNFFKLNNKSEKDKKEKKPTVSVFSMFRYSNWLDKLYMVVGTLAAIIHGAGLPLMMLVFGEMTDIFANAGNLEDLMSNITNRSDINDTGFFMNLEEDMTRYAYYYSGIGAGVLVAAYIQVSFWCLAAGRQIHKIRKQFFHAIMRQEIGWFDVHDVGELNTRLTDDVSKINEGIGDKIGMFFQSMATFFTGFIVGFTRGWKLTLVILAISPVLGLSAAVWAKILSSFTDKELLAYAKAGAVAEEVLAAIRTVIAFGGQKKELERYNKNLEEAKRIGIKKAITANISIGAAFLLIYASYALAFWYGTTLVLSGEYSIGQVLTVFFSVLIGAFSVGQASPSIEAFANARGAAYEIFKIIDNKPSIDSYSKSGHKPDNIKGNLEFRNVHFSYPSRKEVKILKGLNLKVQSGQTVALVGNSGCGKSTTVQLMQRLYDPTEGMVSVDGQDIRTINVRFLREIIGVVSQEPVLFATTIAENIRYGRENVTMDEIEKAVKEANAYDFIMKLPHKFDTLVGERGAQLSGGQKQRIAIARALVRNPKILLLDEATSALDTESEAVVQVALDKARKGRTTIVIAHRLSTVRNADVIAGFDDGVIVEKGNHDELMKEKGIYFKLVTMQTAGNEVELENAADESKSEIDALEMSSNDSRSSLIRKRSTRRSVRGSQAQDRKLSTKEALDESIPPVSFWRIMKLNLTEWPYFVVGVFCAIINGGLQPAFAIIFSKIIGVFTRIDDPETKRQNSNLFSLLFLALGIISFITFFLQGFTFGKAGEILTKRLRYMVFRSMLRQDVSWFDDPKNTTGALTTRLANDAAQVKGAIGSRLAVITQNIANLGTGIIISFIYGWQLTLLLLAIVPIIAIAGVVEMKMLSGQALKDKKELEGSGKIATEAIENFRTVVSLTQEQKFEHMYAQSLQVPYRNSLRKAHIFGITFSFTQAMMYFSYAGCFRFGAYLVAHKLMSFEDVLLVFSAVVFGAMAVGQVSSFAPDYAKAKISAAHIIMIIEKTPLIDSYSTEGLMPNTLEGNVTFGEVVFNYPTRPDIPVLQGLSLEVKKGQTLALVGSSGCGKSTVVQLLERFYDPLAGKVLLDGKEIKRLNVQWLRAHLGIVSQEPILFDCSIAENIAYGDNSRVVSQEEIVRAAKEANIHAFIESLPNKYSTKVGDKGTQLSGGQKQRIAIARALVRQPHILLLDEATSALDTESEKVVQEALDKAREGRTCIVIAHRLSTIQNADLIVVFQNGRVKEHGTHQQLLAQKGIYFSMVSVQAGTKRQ

For the compound `CO[C@H]1/C=C/O[C@@]2(C)Oc3c(C)c(O)c4c(O)c(cc(O)c4c3C2=O)NC(=O)/C(C)=C\C=C\[C@H](C)[C@H](O)[C@@H](C)[C@@H](O)[C@@H](C)[C@H](OC(C)=O)[C@@H]1C`, in data set [1], the Activity result is “inhibitor [+]”. Consider `COC1/C=C/OC2(C)Oc3c(C)c(O)c4c(O)c(cc(OCC(=O)Nc5ccc(I)cc5)c4c3C2=O)NC(=O)/C(C)=C\C=C\C(C)C(O)C(C)C(O)C(C)C(OC(C)=O)C1C` (centres undefined), for which the Activity result in data set [2] is “is not an inhibitor [-]”. Regarding `CO[C@H]1/C=C/O[C@@]2(C)Oc3c(C)c(O)c4c(O)c(c(/C=N/N5CCN(C)CC5)c(O)c4c3C2=O)NC(=O)/C(C)=C\C=C\[C@H](C)[C@H](O)[C@@H](C)[C@@H](O)[C@@H](C)[C@H](OC(C)=O)[C@@H]1C` [RIFAMPIN], the Activity entry in data set [3] and in data set [4] was “inhibitor [+]” throughout.
